Results as given in patent US20180340012A1, “METHODS AND CO[…] TO IMPROVING PROPERTIES OF PHARMACOLOGICAL AGENTS TARGETING NERVOUS SYSTEM” (University of Utah Research Foundation, priority 2006, published 2018).
Entries after “also recorded” stand apart in the source; their conditions may differ. Like-named read-outs stand apart in the source and are kept apart here. Square brackets hold non-standard residues; d marks the D form. Ends that are not written are not given here. Peptide text beside a SMILES is read from it. * marks the point of attachment. Fmoc = O=C(OCC1c2ccccc2-c2ccccc21)*; Palmitoyl = CCCCCCCCCCCCCCCC(=O)*; Cha = N[C@@H](CC1CCCCC1)C(=O)O; AMC = Cc1cc(=O)oc2cc(N*)ccc12; Ahx = NCCCCCC(=O)O; Sar = CNCC(=O)O

Columns and labels:
hGalR2 = biological target: T1, hGalR2 (Homo sapiens, UniProt O43603); conditions: cited from earlier work
T1 sequence (O43603 1-387): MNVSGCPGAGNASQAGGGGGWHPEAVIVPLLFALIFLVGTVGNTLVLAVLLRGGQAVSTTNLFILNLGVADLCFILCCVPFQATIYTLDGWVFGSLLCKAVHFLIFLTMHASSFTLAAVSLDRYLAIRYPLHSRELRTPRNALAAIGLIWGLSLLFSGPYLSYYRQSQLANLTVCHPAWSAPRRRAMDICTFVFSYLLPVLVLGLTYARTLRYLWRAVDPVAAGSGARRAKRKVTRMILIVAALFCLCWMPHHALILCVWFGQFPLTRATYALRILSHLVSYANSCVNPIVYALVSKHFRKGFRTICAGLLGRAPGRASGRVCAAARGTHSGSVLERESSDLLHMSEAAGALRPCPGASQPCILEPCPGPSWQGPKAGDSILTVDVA

6 Hz limbic seizures = assay: 6 Hz limbic (psychomotor) seizure test; assay type: in vivo, CF-1 mice; conditions: for % Protection at 1, 2 and 4 hours (result in words) / % Protection at 1 hour / % Protection at 2 hours / % Protection at 4 hours: 4 mg/kg; for % Protection at 1, 2 and 4 hours (result in words) / % Protection at 1 hour / % Protection at 2 hours / % Protection at 4 hours / ED50 in the 6 Hz model / dose in parentheses in Table 14 (ED50): i.p.; for % Protection at 1 hour: model not printed at tables, ED50s of same analogs called 6 Hz model; for dose in parentheses in Table 14 (ED50): not labelled in table
Description: Mice not displaying limbic seizures were considered protected.

[1] = Toxicity (motor impairment) noted in the SAR screen; assay type: in vivo, mice; conditions: 4 mg/kg, i.p.
Description: Minimal toxicity will be identified in mice by the rotarod procedure (Dunham and Miya, 1957). When a mouse is placed on a 1-inch knurled rod that rotates at a speed of 6 r.p.m., the animal can maintain its equilibrium for long periods of time. The animal is considered toxic if it falls off this rotating rod three times during a 1-minute period.
SAR studies have been carried out in an effort to better understand structural determinants of its activity following systemic administration. […] Presence of the Lys-palm residue was insufficient to produce any observable anticonvulsant activity.

sound-induced seizures = assay: Frings audiogenic seizure-susceptible mouse model; assay type: in vivo
Experimental: The two modified galanin analogs (GAL-BBB1 and GAL-BBB2) were administered i.p. to a group of Frings audiogenic seizure susceptible mice in a dose of 4 mg/kg. At various times after administration (i.e., 15, 30, 60, 120, and 240 min) each mouse was placed into a cylindrical test chamber fitted with an audio transducer and challenged with a high-intensity sound stimulus (110 dB, 11 KHz for 20 sec). Animals not displaying tonic hind-limb extension were considered protected. […] In a subsequent study, anticonvulsant efficacy was quantitated at the time to peak effect (i.e., 1 h) in a dose-response study.
The ability of individual modified analogs to prevent seizures induced by sound in the AGS-susceptible Frings mouse model can be assessed at the time of peak effect (White et al., 1992). For this test, individual mice are placed into a plexiglass cylinder (diameter, 15 cm; height, 18 cm) fitted with an audio transducer (Model AS-ZC; FET Research and Development, Salt Lake City, Utah), and exposed to a sound stimulus of 110 decibels (11 KHz) delivered for 20 seconds. Sound-induced seizures are characterized by wild running followed by loss of righting reflex with forelimb and hindlimb tonic extension. Mice not displaying hindlimb tonic extension are considered protected.
At various times after administration (i.e., 15, 30, 60, 120, and 240 min) each mouse was placed into a cylindrical test chamber fitted with an audio transducer and challenged with a high-intensity sound stimulus (110 dB, 11 KHz for 20 sec).

[2] = tested on: formalin-induced paw licking; assay: Mouse formalin test; assay type: in vivo; conditions: for Active at (flat phase II): mouse formalin assay of inflammatory pain
Experimental: An injection of 0.5% formalin is made into the planter region of a mouse right hind paw. This elicits a distinct biphasic behavioral profile characterized by the mouse licking the affected paw. Immediately following the injection the mouse licks the paw for about 10 minutes. This is phase 1 (acute) and is followed by a brief latent period where there is little behavioral activity. A more prolonged period of about 20 to 30 minutes of paw licking ensues which constitutes phase 2 (inflammatory).
Prior to the administration of the active peptide, drug or vehicle each mouse undergoes a 15-minute conditioning period in one of several 6″ tall plexiglass observation tubes (4″ diameter) that are placed in front of a mirror. […] One hour after treatment, formalin was injected sub-dermally (20 μl; 27 gauge needle) into the plantar surface of the right hind foot. The bevel of the needle is placed facing down toward the skin surface. Following the injection of the formalin each animal is observed for first 2 minutes of each 5 minute epoch for a total of 45 minutes. The cumulative length of licking for each 2 minute time period was measured. An animal receiving the requisite volume of vehicle was alternated with each mouse given GAL-BBB2, Gal 1-16, or gabapentin. Animals were euthanized following the conclusion of the experiment.
Area under the curve (AUC) determination was made using the GraphPad Prism Version 3.03. Total AUC is calculated for both the test and control groups for both the acute and inflammatory phases. The AUC for individual animals for each phase is also calculated and converted to percentage of total AUC of control. The average percentages and SEM for both the drug treated and control were calculated and tested for significant difference.

hGalR3 = biological target: T2, hGalR3 (Homo sapiens, UniProt O60755); conditions: Table 18; compiled from literature; read-out: Affinity, KD hGalR3; cited from earlier work
T2 sequence (O60755 1-368): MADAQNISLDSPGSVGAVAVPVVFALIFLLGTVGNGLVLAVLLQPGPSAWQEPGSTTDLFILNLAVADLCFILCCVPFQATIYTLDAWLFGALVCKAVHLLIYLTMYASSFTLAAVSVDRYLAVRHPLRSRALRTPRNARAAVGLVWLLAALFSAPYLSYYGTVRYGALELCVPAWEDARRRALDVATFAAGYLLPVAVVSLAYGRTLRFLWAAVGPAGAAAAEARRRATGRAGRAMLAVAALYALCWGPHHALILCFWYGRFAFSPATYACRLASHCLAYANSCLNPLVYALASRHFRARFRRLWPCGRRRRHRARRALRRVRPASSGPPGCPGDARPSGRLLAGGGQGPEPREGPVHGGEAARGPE

[3] = tested on: seizures (6 Hz limbic seizure model); conditions: 4 mg/kg, i.p.
galanin receptors = conditions: truncation of GAL(1-16) fragment; read-out: KD towards galanin receptors; cited from earlier work
[4] = Table 2, reference ligands, same values as Table 18, read-out: affinity toward galanin receptors, GalR2
[5] = Table 18, compiled from literature, read-out: Affinity, KD hGalR2

Cc1cc(=O)oc2cc(NC(=O)[C@H](CCCCN)NC(=O)[C@H](CC3CCCCC3)NC(=O)OCC3c4ccccc4-c4ccccc43)ccc12 [Galnon] (Fmoc-[Cha]-Lys-{AMC})
Kd (hGalR2; [4]): 24000 nM
Kd (hGalR2; [5]): 24000 nM

CC[C@@H](C(N)=O)N1CCCC1=O [Levetiracetam, reference compound]
maximum protection against 6 Hz limbic seizures (6 Hz limbic seizures; 6 Hz (44 mA), 1000 mg/kg, alone): ≤ 50%

CCCCCCCCCCCCCCCC(=O)NCCCC[C@H](NC(=O)[C@H](CCCCN)NC(=O)[C@H](CCCCN)NC(=O)[C@H](CCCCN)NC(=O)[C@H](CCCCN)NC(=O)[C@H](CC(C)C)NC(=O)[C@H](CC(C)C)NC(=O)[C@H](Cc1ccc(O)cc1)NC(=O)CNC(=O)[C@H](C)NC(=O)[C@H](CO)NC(=O)[C@H](CC(N)=O)NC(=O)[C@H](CC(C)C)NC(=O)[C@@H](NC(=O)[C@H](Cc1c[nH]c2ccccc12)NC(=O)CNC)[C@@H](C)O)C(=O)N[C@@H](CCCCN)C(N)=O [NAX 1205-4] (H-[Sar]WTLNSAGYLLKKKKK(Palmitoyl)K-NH2)
toxicity (motor impairment) [1]: toxic

GWTLNSAGYLLGPHAV [Gal(1-16), reference compound]
anticonvulsant activity (sound-induced seizures; 20 mg/kg i.p.): inactive
% Protection at 1, 2 and 4 hours (result in words) (6 Hz limbic seizures): Not active
activity in formalin test ([2]; 20 mg/kg i.p.): inactive
Kd (hGalR2; [4]): 8.3 nM
Kd (hGalR2; [5]): 8.3 nM
Kd (hGalR3): 6.5 nM

CNCC(=O)N[C@@H](Cc1c[nH]c2ccccc12)C(=O)N[C@H](C(=O)N[C@@H](CC(C)C)C(=O)N[C@@H](CC(N)=O)C(=O)N[C@@H](CO)C(=O)N[C@@H](C)C(=O)NCC(=O)N[C@@H](Cc1ccc(O)cc1)C(=O)N[C@@H](CC(C)C)C(=O)N[C@@H](CC(C)C)C(=O)NCC(=O)N1CCC[C@H]1C(=O)N[C@@H](CCCCN)C(=O)N[C@@H](CCCCN)C(=O)N[C@@H](CCCCN)C(=O)N[C@@H](CCCCN)C(N)=O)[C@@H](C)O [NAX 1105-2]
% Protection at 1 hour (6 Hz limbic seizures): 30%
% Protection at 2 hours (6 Hz limbic seizures): 0%
% Protection at 4 hours (6 Hz limbic seizures): 0%
ED50 in the 6 Hz model (6 Hz limbic seizures): 3.8 mg/kg
dose in parentheses in Table 14 (ED50) (6 Hz limbic seizures): 3.7 mg/kg
toxicity (motor impairment) [1]: toxicity (motor impairment); also recorded: toxic

DPhe-Cys-Phe-DTrp-Lys-Thr-Cys-Thr-NH2 [DPhe-Cys-Phe-DTrp-Lys-Thr-Cys-Thr-N2, reference compound]
% Protection at 30 min [3]: 50%

GWTLNSAGYL [Fragment 1-10]
Kd (galanin receptors): 25000 nM

(Sar)WTLNSAGYLLGPRR(Lys-P)R [NAX 1205-3]
% Protection at 1 hour (6 Hz limbic seizures): 100%
% Protection at 2 hours (6 Hz limbic seizures): 75%
% Protection at 4 hours (6 Hz limbic seizures): 0%

GWTLNSAGY [Fragment 1-9]
Kd (galanin receptors): 100000 nM

WTLNSAGYLLGPKK(Lys-P)K (not fully specified (C-terminus)) [NAX 1205-1]
% Protection at 1 hour (6 Hz limbic seizures): 50%
% Protection at 2 hours (6 Hz limbic seizures): 50%
% Protection at 4 hours (6 Hz limbic seizures): 0%
ED50 in the 6 Hz model (6 Hz limbic seizures): 5.7 mg/kg
dose in parentheses in Table 14 (ED50) (6 Hz limbic seizures): 5.7 mg/kg

(Sar)WTLNSAGY(Ahx)KK(Lys-P)K [NAX 306-4]
% Protection at 1 hour (6 Hz limbic seizures): 50%
% Protection at 2 hours (6 Hz limbic seizures): 0%
% Protection at 4 hours (6 Hz limbic seizures): 0%
ED50 in the 6 Hz model (6 Hz limbic seizures): 2.95 mg/kg
dose in parentheses in Table 14 (ED50) (6 Hz limbic seizures): 2.95 mg/kg
activity in second response phase of inflammatory pain assay ([2]; 2.95 mg/kg): very active
Active at (flat phase II) [2]: 2.9 mg/kg (“flat phase II”)

(Sar)WTLNSAGYLLGPHA(Lys-P) [306-5]
% Protection at 1, 2 and 4 hours (result in words) (6 Hz limbic seizures): Not active

[Ahx]GGWAGGDFSGE
% Protection at 30 min [3]: 50%
% Protection after 2 hours ([3]; 2 hours): (100% after

CC(C)C[C@H](NC(=O)[C@H](CC(C)C)NC(=O)[C@H](Cc1ccc(O)cc1)NC(=O)CNC(=O)[C@H](C)NC(=O)[C@H](CO)NC(=O)[C@H](CC(N)=O)NC(=O)[C@H](CC(C)C)NC(=O)[C@@H](NC(=O)[C@H](Cc1c[nH]c2ccccc12)NC(=O)CN)[C@@H](C)O)C(=O)NCC(=O)N1CCC[C@H]1C(=O)N[C@@H](Cc1c[nH]cn1)C(=O)O [Fragment 1-14]
Kd (galanin receptors): 150 nM

Lys-Lys-Lys(palm)-Lys-Ahx-DPhe-Cys-Phe-DTrp-Lys-Thr-Cys-Thr-NH2
% Protection at 30 min [3]: 100%

WAGGDFSGE [DSIP, reference compound]
activity against 6 Hz (22 mA) limbic seizures (6 Hz limbic seizures; administered directly into the ventricular space, 22 mA): effective
% Protection at 30 min [3]: 0%

CC(C)C[C@H](NC(=O)[C@H](CC(C)C)NC(=O)[C@H](Cc1ccc(O)cc1)NC(=O)CNC(=O)[C@H](C)NC(=O)[C@H](CO)NC(=O)[C@H](CC(N)=O)NC(=O)[C@H](CC(C)C)NC(=O)[C@@H](NC(=O)[C@H](Cc1c[nH]c2ccccc12)NC(=O)CN)[C@@H](C)O)C(=O)NCC(=O)O [Fragment 1-12]
Kd (galanin receptors): 3000 nM

Sar-Trp-Thr-Leu-Asn-Ser-Ala-Gly-Tyr-Leu-Leu-Gly-Pro-His-(Lys-palm)-Tle-NH2 [GAL-BBB1]
anticonvulsant activity (sound-induced seizures; 4 mg/kg i.p., 15-240 min, also higher dose of 12 mg/kg): not active at any time point tested

(Sar)WTLNSAGYKK(Lys-P)K [NAX 306-3]
Active at (flat phase II) [2]: 2.7 mg/kg (“flat phase II”)

(Sar)WTLNSAGYLLGPDKDK(Lys-P)DK (XWTLNSAGYLLGPXXXX; N-terminal Sar; C-terminal (Lys-P)DK; MOD_RES 1 Xaa = MeGly; VARIANT 14, 15, 17 Xaa = D-Lys; MOD_RES 16 Xaa = Lys-palm) [NAX 1205-2]
% Protection at 1 hour (6 Hz limbic seizures): 100%
% Protection at 2 hours (6 Hz limbic seizures): 50%
% Protection at 4 hours (6 Hz limbic seizures): 75%
ED50 in the 6 Hz model (6 Hz limbic seizures): 1.2 mg/kg
dose in parentheses in Table 14 (ED50) (6 Hz limbic seizures): 1.2 mg/kg
